Measured values published in patent publication US4226883A, “Carbamate derivatives and method for manufacture thereof” (priority 1974, dated 1980).

Each compound was assayed on cholinesterase (ChE), resistant strain (assay: not given). Details: ratio of the resistant strain to the susceptible strain (I50); 30 min.
Type: biochemical, green rice leafhopper, Nephotettix cincticeps
Description: After centrifuged (30,000 g, 10 min.), the supernatant was used as the source of ChE.
(§1) (2) Inhibition: 1.0 ml of enzyme solution was incubated with 0.1 ml of inhibitor which diluted with acetone at 30° C. for 30 min. ((2) solution).
(3) Determination of ChE activity: 1.0 ml of acetylthiochline (3.5/2×10^-2 M), 1.0 ml of DTNB (5,5'-dithiobis-2-nitrobenzoic acid, 2.5×10^-4 M) and 4.0 ml of phosphate buffer (1/15 M, pH 7.4) were added to the (2) solution and incubated at 30° C. for 10 min.
In the case of `CCCC(C)c1cccc(OC(=O)NCC)c1` (stereo not shown) [Compound 20], the “Inhibition of Cholinesterase R/S (resistant ratio)” value (“Inhibition … (resistant ratio)” for short) is reported as 1.2.
For `CCNC(=O)Oc1cccc(CC)c1` [Compound 30], the “Inhibition … (resistant ratio)” value was 0.8.
With `CCNC(=O)Oc1cccc(C(C)CC)c1` (stereo not shown) [Compound 16] the “Inhibition … (resistant ratio)” value was 0.9.
For `CCNC(=O)Oc1cccc(C(C)C)c1` [Compound 12], the “Inhibition … (resistant ratio)” value was 0.5.
With `CCOc1cccc(OC(=O)NC)c1` [Compound 92, reference compound] the “Inhibition … (resistant ratio)” value was 17.6.
In the case of `CCCCNC(=O)Oc1cccc(C(C)CC)c1` (stereo not shown) [Compound 18], the “Inhibition … (resistant ratio)” value is reported as 0.09.
With `CCNC(=O)Oc1cc(C)cc(C)c1` [Compound 41, 3.5-dimethylphenyl-N-ethylcarbamate] the “Inhibition … (resistant ratio)” value was 0.7.

Same assay, conditions: resistant strain; 50% inhibition concentration; 30° C. 30 min with inhibitor; read-out: Inhibition of Cholinesterase I50 (M) R
Compound `CCCC(C)c1cccc(OC(=O)NCC)c1` (stereo not shown) [Compound 20] has an IC50 of 4.1e-06 M.
In the case of `CCNC(=O)Oc1cccc(CC)c1` [Compound 30], the IC50 is reported as 0.00016 M.
`CCNC(=O)Oc1cccc(C(C)CC)c1` (stereo not shown) [Compound 16] showed an IC50 of 5.6e-06 M.
`CCNC(=O)Oc1cccc(C(C)C)c1` [Compound 12] gave an IC50 of 1.7e-05 M.
`CCOc1cccc(OC(=O)NC)c1` [Compound 92, reference compound] was tested, and the IC50 was 0.0003 M.
`CCCCNC(=O)Oc1cccc(C(C)CC)c1` (stereo not shown) [Compound 18] showed an IC50 of 4.3e-06 M.
Work on `CCNC(=O)Oc1cc(C)cc(C)c1` [Compound 41, 3.5-dimethylphenyl-N-ethylcarbamate] yielded an IC50 of 7.9e-05 M.

Each compound was assayed on green rice leafhoppers of the strain RN (assay: Test Example 3: dust spray test (20 mesh metal gauze cylinder)). Details: 2% dust; 100 mg; 24 hr; read-out: Mortality (%) after 24 hr., 100 mg Spray (Table 7).
Type: in vivo, Nephotettix cincticeps
Description: The insecticides in the form of dust were tested for insecticidal activity.
The test for insecticidal activity was performed by the following procedure. […] The dust of a test compound (pulverized by means of a shaking pulverizer made by Taira Kosakusho, Ltd.) was applied onto the tube contents at a prescribed rate by spraying from outside the metal gauze by means of a bell-jar duster. The dust of the test compound was prepared uniformly mixing 2 parts of the dust of the individual compound or 1 part each of the dusts of the mixture components (total 2 parts) and 98 parts of a carrier obtained by mixing talc and clay in equal volumes.
With `CCNC(=O)Oc1cc(C)cc(C)c1` [Compound 41, 3.5-dimethylphenyl-N-ethylcarbamate] the mortality at 100 mg/cylinder was 50%.

Same assay, conditions: 2% dust; 250 mg; 24 hr; read-out: Mortality (%) after 24 hr., 250 mg Spray (Table 7)
`CCNC(=O)Oc1cc(C)cc(C)c1` [Compound 41, 3.5-dimethylphenyl-N-ethylcarbamate] gave a mortality at 250 mg/cylinder of 70%.

Same assay, conditions: Table 9; dust mixed with 1; RN
With `CCOc1cccc(OC(=O)NC)c1` [Compound 92, reference compound] the “death ratio (%), mixture with Compound No. 1” value was 0%.

Same assay, conditions: Table 9; dust mixed with 6*; RN
`CCOc1cccc(OC(=O)NC)c1` [Compound 92, reference compound] was tested, and the “death ratio (%), mixture with Compound No. 6*” value was 0%.

Same assay, conditions: Table 9; dust mixed with 24*; RN
`CCOc1cccc(OC(=O)NC)c1` [Compound 92, reference compound] was tested, and the “death ratio (%), mixture with Compound No. 24*” value was 0%.

Same assay, conditions: Table 9; dust mixed with 35*; RN
`CCOc1cccc(OC(=O)NC)c1` [Compound 92, reference compound] was tested, and the “death ratio (%), mixture with Compound No. 35*” value was 10.0%.

Same assay, conditions: Table 9; dust mixed with 40*; RN
With `CCOc1cccc(OC(=O)NC)c1` [Compound 92, reference compound] the “death ratio (%), mixture with Compound No. 40*” value was 5.0%.

Same assay, conditions: Table 9; dust mixed with 49*; RN
In the case of `CCOc1cccc(OC(=O)NC)c1` [Compound 92, reference compound], the “death ratio (%), mixture with Compound No. 49*” value is reported as 0%.

Same assay, conditions: Table 9; dust mixed with 81*; RN
For `CCOc1cccc(OC(=O)NC)c1` [Compound 92, reference compound], the “death ratio (%), mixture with Compound No. 81*” value was 0%.

Same assay, conditions: Table 9; dust mixed with 118*; RN
In the case of `CCOc1cccc(OC(=O)NC)c1` [Compound 92, reference compound], the “death ratio (%), mixture with Compound No. 118*” value is reported as 25.0%.

Same assay, conditions: Table 9; dust mixed with Carbofuran; RN
`CCOc1cccc(OC(=O)NC)c1` [Compound 92, reference compound] was tested, and the “death ratio (%), mixture with Carbofuran” value was 20.0%.

Same assay, conditions: Table 9; dust mixed with Methomyl; RN
`CCOc1cccc(OC(=O)NC)c1` [Compound 92, reference compound] was tested, and the “death ratio (%), mixture with Methomyl” value was 40.0%.

Same assay, conditions: dust; compound alone; RN strain
In the case of `CCOc1cccc(OC(=O)NC)c1` [Compound 92, reference compound], the “Effect of individual compound (RN), death ratio (%) (Table 9)” value is reported as 0%.

The compounds below were run against cholinesterase (ChE), susceptible strain (assay: Inhibition of cholinesterase (acetylthiocholine method), susceptible strain enzyme). Details: 50% inhibition concentration, 30° C. 30 min with inhibitor, read-out: Inhibition of Cholinesterase I50 (M) S.
Type: biochemical, green rice leafhopper, Nephotettix cincticeps
Description: The activity of ChE was performed by the acethyethiocholine method [Ellman (1961), Biochemical Pharmacology 7: 88-95].
[…]. After centrifuged (30,000 g, 10 min.), the supernatant was used as the source of ChE.
as §1
(3) Determination of ChE activity: 1.0 ml of acetylthiochline (3.5/2×10^-2 M), 1.0 ml of DTNB (5,5'-dithiobis-2-nitrobenzoic acid, 2.5×10^-4 M) and 4.0 ml of phosphate buffer (1/15 M, pH 7.4) were added to the (2) solution and incubated at 30° C. for 10 min. After incubation, […] of eserine (2×10^-3 M) was added in order to stop the enzyme reaction and the optical density of the yellow solution was measured at 412 mμ on the spectrophotometer.
`CCCC(C)c1cccc(OC(=O)NCC)c1` (stereo not shown) [Compound 20] gave an IC50 of 3.4e-06 M.
Work on `CCNC(=O)Oc1cccc(CC)c1` [Compound 30] yielded an IC50 of 0.0002 M.
Compound `CCNC(=O)Oc1cccc(C(C)CC)c1` (stereo not shown) [Compound 16] has an IC50 of 6.5e-06 M.
For `CCNC(=O)Oc1cccc(C(C)C)c1` [Compound 12], the IC50 was 3.7e-05 M.
With `CCOc1cccc(OC(=O)NC)c1` [Compound 92, reference compound] the IC50 was 1.7e-05 M.
For `CCCCNC(=O)Oc1cccc(C(C)CC)c1` (stereo not shown) [Compound 18], the IC50 was 5e-05 M.
`CCNC(=O)Oc1cc(C)cc(C)c1` [Compound 41, 3.5-dimethylphenyl-N-ethylcarbamate] gave an IC50 of 0.00011 M.

The compounds below were run on resistant green rice leafhoppers (R) (assay: not given). Details: ratio of the resistant strain to the susceptible strain (LD50); 1440 min.
Description: (1) A 20-mg portion of a given test compound was weighed out and dissolved in 10 ml of acetone. The resultant solution was diluted at proper times with acetone.
(2) With a micro-syringe, the acetone solution of the test compound was topically applied to the thoracic region of female green rice leafhoppers at a fixed dose of 0.2 μl per head.
(3) The female green rice leafhoppers thus treated were placed in a plastic cup prepared in advance (measuring 7 cm in diameter and 3.5 cm in depth and containing rice seeds) and kept at a constant temperature of 26±1° C. After 24 hours' standing, the dead insects were counted.
In the case of a mixed insecticide, the LD50 was shown as a total dosage.
With `CCCC(C)c1cccc(OC(=O)NCC)c1` (stereo not shown) [Compound 20] the “Insecticidal Activity R/S (resistant ratio)” value was 1.5.
`CCNC(=O)Oc1cccc(CC)c1` [Compound 30] was tested, and the “Insecticidal Activity R/S (resistant ratio)” value was 1.7.
`CCNC(=O)Oc1cccc(C(C)CC)c1` (stereo not shown) [Compound 16] was tested, and the “Insecticidal Activity R/S (resistant ratio)” value was 3.7.
In the case of `CCNC(=O)Oc1cccc(C(C)C)c1` [Compound 12], the “Insecticidal Activity R/S (resistant ratio)” value is reported as 3.7.
For `CCCCNC(=O)Oc1cccc(C(C)CC)c1` (stereo not shown) [Compound 18], the “Insecticidal Activity R/S (resistant ratio)” value was 0.9.
With `CCNC(=O)Oc1cc(C)cc(C)c1` [Compound 41, 3.5-dimethylphenyl-N-ethylcarbamate] the “Insecticidal Activity R/S (resistant ratio)” value was 2.0.
